Measured values as given in patent US11020414B2, “Antimicrobial compositions with cysteamine” (priority 2010, dated 2021).
Converted amounts (≈) assume the structure as drawn. “And” between values parts separate entries of the source, which are not always exact repeats. Equal values may be shown once. Read-outs that look alike come from different tables or passages of the source.

Experiments:
[1] = system: Burkholderia cepacia NCTC10743; assay: MIC100 and FIC of cysteamine and tobramycin, MH broth (CLSI) and artificial sputum medium; format: cell-based
Experimental: (§1) Both the bacterial inoculum and the antimicrobial agents, including the compounds structurally related to cysteamine, were added simultaneously to the plates. The plates were incubated at 37° C. for 24 h and the optical density was read at 625 nm on a microtitre plate reader (BioTek Powerwave XS, Winooski, USA). The MIC was obtained as the lowest concentration of antimicrobial showing total inhibition of bacterial growth.
(§2) The FIC corresponds to an interaction coefficient indicating whether the combination of antimicrobial agents is synergistic, additive, antagonist or neutral. The FIC is determined by comparing the activity of an agent in combination (MIC of agent A+agent B) with the activity of the agent alone (MIC of agent A or agent B) as follow (Singh et al., 2000): FIC=MICA[combination]/MICA[alone]+MICB[combination]/MICB[alone]
(§3) The complex pathophysiology of CF is characterized by airway obstruction caused by abnormal mucus secretion and infection, with 60-80% of patients being chronically infected with the biofilm-forming bacteria Pseudomonas aeruginosa (George et al., 2009). With a prevalence of up to 10% in adult CF patients, B. cepacia complex is a rare but major concern due to its high virulence, morbidity and transmissibility (O'Malley, 2009; Brüssow, 2012). We tested the antimicrobial activity of cysteamine-tobramycin combinations in artificial sputum medium (Yang, et al., 2011) against 4 P. aeruginosa (PAO1, ATCC27853, DSMZ1128 and DSMZ1299) and 2 B. cepacia complex strains (NCTC10743 and NCTC10744).

[2] = system: Burkholderia cepacia NCTC10744; assay: as above; format: cell-based; conditions: read-out: MIC100, agent alone
Experimental: as §1, §2, §3

[3] = system: Pseudomonas aeruginosa Pa01; assay: FIC index of combinations with conventional antibiotics, strain Pa01; format: cell-based; conditions: strain Pa01 (Col^R), listed as Cysteamine (NM001)
Experimental: (§4) The bacterial inoculum was established by the dilution method from actively-growing cultures in Mueller-Hinton (MH) broth, standardized with 0.5 McFarland turbidity standard as described in the CLSI method M26-A.
as §1, §2
(§5) Additive combinations of two antimicrobial agents are indicated by a FIC index of 1, whereas a FIC index<1 indicates synergistic combinations. Neutral combinations would give a FIC between 1 and 4, a FIC index higher than 4 indicates antagonist effects between the two antimicrobial agents.
(§6) The FIC was also calculated to assess the interaction of two antimicrobial agents in combination against bacterial samples.

[4] = system: Pseudomonas aeruginosa Pa01; assay: MIC determination, strain Pa01; format: cell-based
Experimental: as §4
as §1, with “The MIC was obtained as the lowest concentration of antimicrobial showing total inhibition of bacterial growth.” left out
(§7) A number of compounds related in chemical structure to cysteamine were examined for antimicrobial activity; cystamine (dihydrochloride salt), taurine and 2,3-dimercaptosuccinic acid. Other compounds chemically related to cysteamine are known, but are toxic, and are therefore of no utility in a drug of this nature.

[5] = system: P. aeruginosa PAO1 biofilm; assay: Minimum biofilm eradication concentration against established biofilm (FIG. 4); format: cell-based, Pseudomonas aeruginosa
[6] = system: Pseudomonas aeruginosa NH57388A; assay: MIC determination, strain NH57388A; format: cell-based
Experimental: as §4
as §1, with “The MIC was obtained as the lowest concentration of antimicrobial showing total inhibition of bacterial growth.” left out
as §7

[7] = system: Pseudomonas aeruginosa Pa058; assay: FIC index of combinations with conventional antibiotics, strain Pa058; format: cell-based; conditions: strain Pa058 (Col^R, Cip^R Tob^R), listed as Cysteamine (NM001)
Experimental: as §4, §1, §2, §5, §6

[8] = system: Pseudomonas aeruginosa Pa058; assay: MIC determination, strain Pa058; format: cell-based
Experimental: as §4
as §1, with “The MIC was obtained as the lowest concentration of antimicrobial showing total inhibition of bacterial growth.” left out
as §7

`NCCS` [Cysteamine, cysteamine] was tested. Which MIC ([1]; NCTC10743, B. cepacia NCTC10743, FIG. 6, read-out: MIC100, agent alone) did it give?
Its MIC is 500 µg/mL.

And the MIC ([1]; NCTC10743, B. cepacia NCTC10743, in both media (MH broth and ASM), FIG. 11, read-out: MIC100, agent alone)?
The MIC was 500 µg/mL.

What about the MIC ([1]; NCTC10743, B. cepacia NH10743, ASM (Artificial Sputum Medium), read-out: MIC100, agent alone) of the same compound?
Its MIC is 500 µg/mL.

And the MIC ([1]; NCTC10743, B. cepacia NH10743, CLSI, read-out: MIC100, agent alone)?
Its MIC is 250 µg/mL.

And the MIC ([2]; NCTC10744, B. cepacia NH10744, ASM (Artificial Sputum Medium))?
The MIC was 500 µg/mL.

And the MIC ([2]; NCTC10744, B. cepacia NH10744, CLSI)?
The MIC was 250 µg/mL.

And the “FICI (Additive) Col” value ([3]; in combination with Colistin)?
The value was 0.53 and 0.56.

What about the “FICI (Synergy) Col” value ([3]; in combination with Colistin) of the same compound?
The value was 0.38 and 0.31 and 0.25.

And the “FICI (Additive) Gent” value ([3]; in combination with Gentamicin)?
Its value is 0.5 and 0.53 and 0.63.

And the “FICI (Synergy) Gent” value ([3]; in combination with Gentamicin)?
The value was 0.38.

And the “FICI (Additive) Tob” value ([3]; in combination with Tobramycin)?
The value was 0.63.

What about the “FICI (Synergy) Tob” value ([3]; in combination with Tobramycin) of the same compound?
Its value is 0.31 and 0.28 and 0.25.

What about the MIC50 [4] of the same compound?
Its MIC50 is 250 to 500 µg/mL (≈ 3.24 to 6.48 mM).

And the MIC90 [4]?
The MIC90 was 500 µg/mL (≈ 6.48 mM).

And the MIC ([4]; read-out: MIC100)?
Its MIC is 667 µg/mL (≈ 8.64 mM).

And the “minimum biofilm eradication concentration (MBEC), agent alone” value [5]?
Its value is 1000 µg/mL.

What about the MIC50 [6] of the same compound?
The MIC50 was 250 µg/mL (≈ 3.24 mM).

And the MIC90 [6]?
The MIC90 was 250 to 500 µg/mL (≈ 3.24 to 6.48 mM).

What about the MIC ([6]; read-out: MIC100) of the same compound?
Its MIC is 667 µg/mL (≈ 8.64 mM).

And the “FICI (Additive) Cip” value ([7]; in combination with Ciprofloxacin)?
The value was 0.53 and 0.56.

And the “FICI (Additive) Col” value ([7]; in combination with Colistin)?
The value was 0.75 and 0.53 and 0.56 and 0.5.

And the “FICI (Additive) Gent” value ([7]; in combination with Gentamicin)?
Its value is 0.56 and 0.5 and 0.75.

What about the “FICI (Additive) Tob” value ([7]; in combination with Tobramycin) of the same compound?
The value was 0.52 and 0.56 and 0.5 and 0.53 and 0.63 and 0.75.

What about the MIC50 [8] of the same compound?
The MIC50 was 500 µg/mL (≈ 6.48 mM).

What about the MIC90 [8] of the same compound?
The MIC90 was 1000 µg/mL (≈ 13 mM).

What about the MIC ([8]; read-out: MIC100) of the same compound?
The MIC was 1000 µg/mL (≈ 13 mM).
